Peptide text beside a SMILES is read from it.
Columns and labels:
MAPKAP-K1a [1] = target: T1, MAPKAP-K1a (Rattus norvegicus, UniProt Q63531); assay: Substrate phosphorylation kinetics with GST-MAPKAP-K1a; format: biochemical
T1 construct: made in house; host or cells: human embryonic kidney 293 cells, TPA-stimulated
Protocol: (§1) FIG. 8. […] (A) Comparison of the substrate specificities of MSK1, MAPKAP-K1a and MAPKAP-K1b towards the indicated peptides and CREB. Phosphorylation and analysis was carried out as described in Materials and Methods. The standard errors for all reported kinetic constants were within <+20% (SEM), and the data is reported as mean values for 2 independent experiments. The Vmax values are reported as a percentage of the value obtained using Crosstide ([…], peptide 1 (SEQ ID NO:16)) as a substrate. The peptide […] (SEQ ID NO:18) corresponding to residues 126–136 of CREB is termed CREBtide. The serine residues shown in bold correspond to the phosphorylated serine residues on the peptides. […] (B) GST-MSK1 (solid bars), GST-MAPKAPK-1a (open bars), MAPKAP-K-1b (speckled bars) or GST-MAPKAP-K2 (diagonal bars) were assayed with the indicated substrates. […] The phosphorylation of CREB by MAPKAP-K2 shown in the figure is corrected to show only the contribution of Ser133 phosphorylation to the total incorporation of phosphate into CREB. […]
(§2) Phosphorylation of CREB and HSP27 by MSK1 and MAPKAP-K1a/b (see FIG. 8). MSK1 and MAPKAP-K1a expressed as GST fusion proteins were purified from TPA stimulated 293 cells (FIG. 3) and MAPKAP-K1b was purified from rabbit skeletal muscle (Sutherland et al., 1993). […] The ^32P-radioactivity incorporated was then determined by Cerenkov counting. […]

MAPKAP-K1b = target: T2, MAPKAP-K1b (Oryctolagus cuniculus, UniProt A0A5F9C4L9); assay: Substrate phosphorylation kinetics with MAPKAP-K1b; format: biochemical, rabbit
T2 construct: MAPKAP-K1b was purified from rabbit skeletal muscle (Sutherland et al., 1993); from tissue; host or cells: rabbit skeletal muscle
T2 sequence (A0A5F9C4L9 1-740): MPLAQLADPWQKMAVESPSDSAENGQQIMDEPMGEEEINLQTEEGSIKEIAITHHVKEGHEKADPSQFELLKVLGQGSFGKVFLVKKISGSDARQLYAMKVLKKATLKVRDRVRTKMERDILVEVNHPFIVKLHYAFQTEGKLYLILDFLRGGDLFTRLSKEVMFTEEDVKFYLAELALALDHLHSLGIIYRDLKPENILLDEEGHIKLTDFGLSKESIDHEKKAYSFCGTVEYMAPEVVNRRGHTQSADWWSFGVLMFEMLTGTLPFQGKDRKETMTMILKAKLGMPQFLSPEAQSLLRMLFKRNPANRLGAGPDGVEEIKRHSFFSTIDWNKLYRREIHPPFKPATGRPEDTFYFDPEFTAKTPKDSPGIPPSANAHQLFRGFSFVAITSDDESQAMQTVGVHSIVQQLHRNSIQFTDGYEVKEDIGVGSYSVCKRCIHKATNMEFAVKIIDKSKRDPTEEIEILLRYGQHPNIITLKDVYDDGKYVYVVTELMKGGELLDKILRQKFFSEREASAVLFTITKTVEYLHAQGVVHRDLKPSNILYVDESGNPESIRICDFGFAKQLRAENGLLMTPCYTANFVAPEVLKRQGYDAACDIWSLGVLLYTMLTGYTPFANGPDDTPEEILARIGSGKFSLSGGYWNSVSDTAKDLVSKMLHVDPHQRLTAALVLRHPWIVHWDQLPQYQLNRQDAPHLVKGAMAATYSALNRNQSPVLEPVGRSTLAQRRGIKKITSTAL
Protocol: as §1, §2

MSK1 [2] = target: MSK1 (Homo sapiens, UniProt O75582); assay: Substrate phosphorylation kinetics with GST-MSK1; format: biochemical; design: generate a full length FLAG-MSK 1 construct in the pCMV5 mammalian expression; made in house; host or cells: human embryonic kidney 293 cells (TPA-stimulated before lysis)
Sequence of MSK1 (Homo sapiens, UniProt O75582) (O75582 whole entry, the tested form may be a part): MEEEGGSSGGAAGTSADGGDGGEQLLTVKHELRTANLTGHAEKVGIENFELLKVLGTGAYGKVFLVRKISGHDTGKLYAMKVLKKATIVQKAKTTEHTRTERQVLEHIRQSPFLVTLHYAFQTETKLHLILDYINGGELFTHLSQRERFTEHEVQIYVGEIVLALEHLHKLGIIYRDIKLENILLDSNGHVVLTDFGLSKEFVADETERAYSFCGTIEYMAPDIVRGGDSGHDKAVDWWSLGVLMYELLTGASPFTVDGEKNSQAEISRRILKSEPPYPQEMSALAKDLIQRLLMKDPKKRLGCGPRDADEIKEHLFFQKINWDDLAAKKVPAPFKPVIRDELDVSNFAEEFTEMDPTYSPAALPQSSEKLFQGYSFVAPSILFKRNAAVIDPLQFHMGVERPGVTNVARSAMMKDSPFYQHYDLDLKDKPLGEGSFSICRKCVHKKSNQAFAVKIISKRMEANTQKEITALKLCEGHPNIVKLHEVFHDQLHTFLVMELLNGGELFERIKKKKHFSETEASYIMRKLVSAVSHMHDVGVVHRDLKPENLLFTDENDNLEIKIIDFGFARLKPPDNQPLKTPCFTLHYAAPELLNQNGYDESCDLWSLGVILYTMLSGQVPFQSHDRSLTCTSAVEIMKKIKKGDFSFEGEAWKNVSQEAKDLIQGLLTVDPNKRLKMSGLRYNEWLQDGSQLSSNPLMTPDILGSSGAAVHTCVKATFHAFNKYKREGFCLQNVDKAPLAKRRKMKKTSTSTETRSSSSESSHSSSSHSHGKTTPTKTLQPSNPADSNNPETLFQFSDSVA
Protocol: FIG. 8. MSK1 phosphorylates CREB at Ser133. (A) Comparison of the substrate specificities of MSK1, MAPKAP-K1a and MAPKAP-K1b towards the indicated peptides and CREB. Phosphorylation and analysis was carried out as described in Materials and Methods. The standard errors for all reported kinetic constants were within <+20% (SEM), and the data is reported as mean values for 2 independent experiments. The Vmax values are reported as a percentage of the value obtained using Crosstide ([…], peptide 1 (SEQ ID NO:16)) as a substrate. The peptide […] (SEQ ID NO:18) corresponding to residues 126–136 of CREB is termed CREBtide. The serine residues shown in bold correspond to the phosphorylated serine residues on the peptides. […] 75% of the radioactivity applied to the column was recovered from the major ^32P-containing peptide at 13% acetonitrile (the remainder of the radioactivity eluted as numerous minor peaks). […]
Phosphorylation of CREB and HSP27 by MSK1 and MAPKAP-K1a/b (see FIG. 8). MSK1 and MAPKAP-K1a expressed as GST fusion proteins were purified from TPA stimulated 293 cells (FIG. 3) and MAPKAP-K1b was purified from rabbit skeletal muscle (Sutherland et al., 1993). […] The ^32P-radioactivity incorporated was then determined by Cerenkov counting. […] The supernatant, containing 95% of the ^32P-radioactivity, was chromatographed on a Vydac C18 column as described in the legend to FIG. 8. […]

MAPKAP-K1a [3] = assay: Activation of overexpressed MAPKAP-K1a in 293 cells; format: cell-based, human; conditions: TPA stimulation, data not shown
Source text: FIG. 7. MSK1 is mainly localised in the nucleus of cells and MAPKAP-K1a in the cytosol. […] Data is from three independent experiments. For MSK1 controls n=9, 9 and 14; for TPA n+10, 11 and 15. For MAPKAP-K1a controls total n=22; for TPA total n=9 (excluding cells with extensive clumps of immunoreactive material in the cytoplasm). Bars represent standard error of the mean calculated according to Cochran (1953). (C) Selected samples for MSK1 (C, unstimulated and D, TPA) and for MAPKAP-K1a (E, unstimulated) are shown to illustrate structures and labelling distributions. Bar is 500 nm.
MSK1 is localised in nuclei and MAPKAP-K1a in the cytoplasm. The subcellular location of wild type MSK1 that was overexpressed in 293 cells was investigated by quantitative immunoelectron microscopy (FIG. 7). MSK1 was largely located in the nucleus of unstimulated cells. The density of MSK1 in the nuclear compartment was 12 to 30-fold higher than in the cytoplasm (FIGS. 7A and 7C). […] Consistent with this observation MAPKAP-K1a, when overexpressed in cells, was largely localised in the cytoplasm (FIG. 7B). Moreover, no significant translocation of MAPKAP-K1a to the nucleus was observed following TPA stimulation of cells (FIGS. 7B and 7E) which induces 100-fold activation of this kinase (data not shown).

MSK1 [4] = assay: Activation of transfected Flag-MSK1 in 293 cells; format: cell-based, human; conditions: stimulation with the agonist
Protocol: FIG. 6. Effect of mutation of MSK1 on activation by TPA and UV in 293 cells. 293 cells were transiently transfected with DNA constructs expressing Flag epitope tagged wild type MSK1, N-terminal (NT) “kinase dead” MSK1 and C-terminal (CT) “kinase dead” MSK1. […] The cells were lysed and the MSK1 was immunoprecipitated from the lysates and assayed with Crosstide.
Transfection of MSK1 into 293 cells. 293 cells were cultured on 10 cm diameter dishes and transfected with the pCMV5 vector encoding the Flag epitope tagged MSK1 constructs using a modified calcium phosphate method (Alessi et al., 1996b). 24 h post-transfection, the cells were deprived of serum for 16 h, stimulated with TPA or exposed to UV radiation, the cells were then lysed in 1 ml of ice cold Buffer A, centrifuged at 13,000×g for 5 min, and the Flag tagged MSK1 protein immunoprecipitated from aliquots of lysate (containing 25 μg protein) using 2 μg of FLAG antibody coupled to 5 (1 of Protein G-Sepharose.
Immunoprecipitates were incubated, washed and assayed for MSK1 activity as described above.

MAPKAP-K1 = assay: NGF-induced activation of MAPKAP-K1 in PC12 cells

T1 sequence (Q63531 whole entry): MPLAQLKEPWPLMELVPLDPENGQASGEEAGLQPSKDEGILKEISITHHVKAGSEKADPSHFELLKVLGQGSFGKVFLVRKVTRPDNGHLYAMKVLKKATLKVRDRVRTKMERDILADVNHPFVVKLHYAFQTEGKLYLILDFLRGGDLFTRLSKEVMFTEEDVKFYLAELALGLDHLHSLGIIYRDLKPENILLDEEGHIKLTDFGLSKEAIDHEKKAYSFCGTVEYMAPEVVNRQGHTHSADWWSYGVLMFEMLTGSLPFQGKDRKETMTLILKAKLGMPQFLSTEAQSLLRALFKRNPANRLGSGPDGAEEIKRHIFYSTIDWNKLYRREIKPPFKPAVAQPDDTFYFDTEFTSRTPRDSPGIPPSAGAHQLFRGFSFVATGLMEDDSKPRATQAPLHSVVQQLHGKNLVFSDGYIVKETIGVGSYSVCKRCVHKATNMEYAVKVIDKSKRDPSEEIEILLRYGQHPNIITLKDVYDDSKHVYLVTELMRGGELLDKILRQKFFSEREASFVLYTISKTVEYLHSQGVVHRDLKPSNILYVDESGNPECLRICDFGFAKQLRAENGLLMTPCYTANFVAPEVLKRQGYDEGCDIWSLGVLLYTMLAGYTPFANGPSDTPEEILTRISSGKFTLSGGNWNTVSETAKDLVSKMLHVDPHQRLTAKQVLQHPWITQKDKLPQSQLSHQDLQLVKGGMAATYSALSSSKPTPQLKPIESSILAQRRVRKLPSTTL

Compound: CC(C)C[C@H](NC(=O)[C@@H](NC(=O)[C@H](CCCNC(=N)N)NC(=O)[C@H](CC(N)=O)NC(=O)[C@H](CCCNC(=N)N)NC(=O)[C@H](CCCCN)NC(=O)[C@@H](N)CCCCN)[C@@H](C)O)C(=O)N[C@@H](CO)C(=O)N[C@H](C(=O)N[C@@H](C)C(=O)O)C(C)C (H-KKRNRTLSVA-OH)
- Km for phosphorylation by MAPKAP-K1a (MAPKAP-K1a [1]): almost identical Km and Vmax values as for Crosstide
- Km for phosphorylation by MAPKAP-K1b (MAPKAP-K1b): almost identical Km and Vmax values as for Crosstide

Compound: CC[C@H](C)[C@H](NC(=O)[C@@H](N)CCC(=O)O)C(=O)N[C@@H](CC(C)C)C(=O)N[C@@H](CO)C(=O)N[C@@H](CCCNC(=N)N)C(=O)N[C@@H](CCCNC(=N)N)C(=O)N1CCC[C@H]1C(=O)N[C@@H](CO)C(=O)N[C@@H](Cc1ccc(O)cc1)C(=O)N[C@@H](CCCNC(=N)N)C(=O)N[C@@H](CCCCN)C(=O)O [CREBtide] (H-EILSRRPSYRK-OH)
- Km (MSK1 [2]): < 0.1 µM

Compound: C[C@H](NC(=O)[C@H](Cc1ccccc1)NC(=O)[C@H](CO)NC(=O)[C@H](CO)NC(=O)[C@@H](NC(=O)[C@H](CCCNC(=N)N)NC(=O)[C@@H]1CCCN1C(=O)[C@H](CCCNC(=N)N)NC(=O)CN)[C@@H](C)O)C(=O)N[C@@H](CCC(=O)O)C(=O)NCC(=O)O [Crosstide] (H-GRPRTSSFAEG-OH)
- Km (MSK1 [2]): 2 to 3 µM
- Km (MAPKAP-K1a [1]): 2 to 3 µM
- Km (MAPKAP-K1b): 2 to 3 µM

Compound: CCCCCCCCCCCCCC(=O)O[C@@H]1[C@@H](C)[C@@]2(O)[C@@H](C=C(CO)C[C@]3(O)C(=O)C(C)=C[C@@H]23)[C@@H]2C(C)(C)[C@]12OC(C)=O [TPA, 12-O-tetradecanoylphorbol 13-acetate]
- activation of overexpressed MAPKAP-K1a (MAPKAP-K1a [3]): 100 fold
- activation of transfected wild type MSK1 (MSK1 [4]): 200 fold

Compound: NGF: nerve growth factor used as cell stimulus
- activation of MAPKAP-K1 by NGF (MAPKAP-K1): five-fold

From patent publication US7122360B1, “Polypeptides, polynucleotides and uses thereof” (University of Dundee, priority 1998, dated 2006)
